Test results from PubChem BioAssay (NCI).
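Briefly, cells in 96-well plates were exposed to five compound concentrations for 48 h, and endpoints were estimated by linear interpolation. At the GI50, growth is halved. TGI is the concentration that stops growth completely.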

Assays:
Assay in all cases: DTP human tumour cell line panel, 48 h
COLO 205 colon = tested on: COLO 205 colon
HOP-92 NSCLC = tested on: HOP-92 NSCLC
SF-295 CNS = tested on: SF-295 CNS
SN12C renal = tested on: SN12C renal
OVCAR-4 ovarian = tested on: OVCAR-4 ovarian
SK-MEL-5 melanoma = tested on: SK-MEL-5 melanoma
NCI-H23 lung = tested on: NCI-H23 lung
NCI-H522 lung = tested on: NCI-H522 lung
SR leukemia = tested on: SR leukemia

CN(C)CCNC(=O)c1cccc2ccc(-c3ccncc3)nc12
TGI (COLO 205 colon): 7.26 µM
TGI (HOP-92 NSCLC): 7.31 µM
TGI (SF-295 CNS): 14.8 µM
TGI (SN12C renal): 15.4 µM
TGI (OVCAR-4 ovarian): 15 µM
TGI (SK-MEL-5 melanoma): 3.54 µM
TGI (NCI-H23 lung): 5.31 µM

CC(C)(CO)N1CCN(C(=S)Nc2ccccc2)CC1
TGI (COLO 205 colon): > 100 µM
TGI (HOP-92 NSCLC): > 100 µM
TGI (SF-295 CNS): > 100 µM
TGI (SN12C renal): > 100 µM
TGI (OVCAR-4 ovarian): > 100 µM
TGI (SK-MEL-5 melanoma): > 100 µM
TGI (NCI-H23 lung): > 100 µM
TGI (NCI-H522 lung): > 100 µM

COC1(OC)CC2OC1C1N=NN(C(=O)OC(C)(C)C)C21 (centres undefined)
TGI (COLO 205 colon): > 100 µM
TGI (HOP-92 NSCLC): > 100 µM
TGI (SF-295 CNS): > 100 µM
TGI (SN12C renal): > 100 µM
TGI (OVCAR-4 ovarian): > 100 µM
TGI (SK-MEL-5 melanoma): > 100 µM
TGI (NCI-H23 lung): > 100 µM

CC(C)(C)c1cc(CCC(=O)Nc2ccc(Cl)cc2)nc(NC#N)n1
TGI (COLO 205 colon): > 100 µM
TGI (HOP-92 NSCLC): > 100 µM
TGI (SF-295 CNS): > 100 µM
TGI (OVCAR-4 ovarian): > 100 µM
TGI (NCI-H23 lung): > 100 µM

O=C(O)CCSC(=O)Nc1ccc([N+](=O)[O-])cc1
TGI (COLO 205 colon): > 100 µM
TGI (SF-295 CNS): > 100 µM
TGI (SN12C renal): > 100 µM
TGI (OVCAR-4 ovarian): > 100 µM
TGI (NCI-H23 lung): > 100 µM
TGI (SR leukemia): > 100 µM

O=C(CC1(O)C(=O)Nc2c(Cl)ccc(Cl)c21)c1ccc(F)cc1 (centres undefined)
TGI (COLO 205 colon): > 100 µM
TGI (HOP-92 NSCLC): 82.8 µM
TGI (SF-295 CNS): > 100 µM
TGI (SN12C renal): > 100 µM
TGI (OVCAR-4 ovarian): 97.9 µM
TGI (SK-MEL-5 melanoma): 38.6 µM
TGI (NCI-H23 lung): 60.6 µM
TGI (NCI-H522 lung): > 100 µM

CCOC1Oc2ccc(C)cc2C(=O)/C1=C\Nc1ccc(C(N)=O)cc1 (centres undefined)
GI50 (COLO 205 colon): 8.52 µM
TGI (COLO 205 colon): > 100 µM
GI50 (HOP-92 NSCLC): 79.9 µM
TGI (HOP-92 NSCLC): > 100 µM
GI50 (SF-295 CNS): 18.1 µM
TGI (SF-295 CNS): 45.9 µM
GI50 (SN12C renal): 17.6 µM
TGI (SN12C renal): 38.8 µM
GI50 (OVCAR-4 ovarian): 99.8 µM
TGI (OVCAR-4 ovarian): > 100 µM
GI50 (SK-MEL-5 melanoma): 13.8 µM
TGI (SK-MEL-5 melanoma): 30.2 µM
GI50 (NCI-H23 lung): 17.4 µM
TGI (NCI-H23 lung): 38.2 µM
GI50 (NCI-H522 lung): 20.8 µM
TGI (NCI-H522 lung): 47.3 µM

COc1ccc2nc3c(C(=O)NCCN(C)C)cccc3nc2c1
TGI (COLO 205 colon): 22.9 µM
TGI (HOP-92 NSCLC): 24 µM
TGI (SF-295 CNS): 39.1 µM
TGI (SN12C renal): 22.5 µM
TGI (OVCAR-4 ovarian): 29.6 µM
TGI (SK-MEL-5 melanoma): 15.7 µM
TGI (NCI-H23 lung): 24.7 µM

CCOC(=O)/C(C#N)=C/c1[nH]c(C(=O)OCc2ccccc2)c(C)c1C
TGI (COLO 205 colon): > 100 µM
TGI (HOP-92 NSCLC): > 100 µM
TGI (SF-295 CNS): > 100 µM
TGI (SN12C renal): > 100 µM
TGI (OVCAR-4 ovarian): > 100 µM
TGI (SK-MEL-5 melanoma): > 100 µM
TGI (NCI-H23 lung): > 100 µM
TGI (NCI-H522 lung): > 100 µM

CCCC1N2CCCCC2[C@@H]2c3[nH]c4ccccc4c3CCN12 (some centres undefined)
TGI (COLO 205 colon): > 100 µM
TGI (HOP-92 NSCLC): > 100 µM
TGI (SF-295 CNS): > 100 µM
TGI (SN12C renal): > 100 µM
TGI (OVCAR-4 ovarian): > 100 µM
TGI (SK-MEL-5 melanoma): > 100 µM
TGI (NCI-H23 lung): > 100 µM

Nc1cccc(S(=O)(=O)NCC(=O)O)c1
TGI (COLO 205 colon): > 100 µM
TGI (SF-295 CNS): > 100 µM
TGI (SN12C renal): > 100 µM
TGI (OVCAR-4 ovarian): > 100 µM
TGI (SK-MEL-5 melanoma): > 100 µM
TGI (NCI-H23 lung): > 100 µM
TGI (NCI-H522 lung): > 100 µM

C[C@@H]1OC(=O)N2CCCC(=C3SCCCS3)C12 (some centres undefined)
TGI (COLO 205 colon): > 100 µM
TGI (HOP-92 NSCLC): 84.9 µM
TGI (SF-295 CNS): > 100 µM
TGI (SN12C renal): > 100 µM
TGI (OVCAR-4 ovarian): > 100 µM
TGI (NCI-H23 lung): > 100 µM
TGI (NCI-H522 lung): > 100 µM

C/C(CC(=O)Nc1cc(C)ccc1C)=N\NC(=O)c1ccncc1
TGI (COLO 205 colon): > 100 µM
TGI (HOP-92 NSCLC): > 100 µM
TGI (SF-295 CNS): > 100 µM
TGI (SK-MEL-5 melanoma): > 100 µM
TGI (NCI-H23 lung): > 100 µM
TGI (NCI-H522 lung): > 100 µM

CCc1ccccc1NC(=O)C1=C(C)NC(C)=C(C(=O)Nc2ccccc2CC)C1c1ccc2c(c1)OCO2
TGI (COLO 205 colon): > 100 µM
TGI (HOP-92 NSCLC): 60.1 µM
TGI (SF-295 CNS): > 100 µM
TGI (SN12C renal): > 100 µM
TGI (OVCAR-4 ovarian): 92 µM
TGI (SK-MEL-5 melanoma): > 100 µM
TGI (NCI-H23 lung): > 100 µM
TGI (NCI-H522 lung): > 100 µM

Cc1ccc(NC(=O)CC(=O)n2nc(C)c(N=Nc3ccccc3C(=O)O)c2C)cc1
TGI (COLO 205 colon): > 100 µM
TGI (SF-295 CNS): > 100 µM
TGI (SN12C renal): > 100 µM
TGI (OVCAR-4 ovarian): > 100 µM
TGI (SK-MEL-5 melanoma): > 100 µM
TGI (NCI-H23 lung): > 100 µM
TGI (NCI-H522 lung): > 100 µM

CCC[CH2][Sn]1([CH2]CCC)[O]C(=O)CN=Cc2c(ccc3ccccc23)[O]1
GI50 (COLO 205 colon): 0.401 µM
TGI (COLO 205 colon): 1.47 µM
GI50 (HOP-92 NSCLC): 0.171 µM
TGI (HOP-92 NSCLC): 0.606 µM
GI50 (SF-295 CNS): 0.794 µM
TGI (SF-295 CNS): 2.08 µM
GI50 (SN12C renal): 0.374 µM
TGI (SN12C renal): 1.39 µM
GI50 (OVCAR-4 ovarian): 1 µM
TGI (OVCAR-4 ovarian): 2.19 µM
GI50 (SK-MEL-5 melanoma): 1.81 µM
TGI (SK-MEL-5 melanoma): > 100 µM
GI50 (NCI-H23 lung): 0.235 µM
TGI (NCI-H23 lung): 1.11 µM
GI50 (NCI-H522 lung): 0.0605 µM
TGI (NCI-H522 lung): 0.198 µM

O=C(CCc1cc(-c2ccccc2)nc(=S)[nH]1)N(Cc1ccccc1)Cc1ccccc1
TGI (COLO 205 colon): > 100 µM
TGI (HOP-92 NSCLC): > 100 µM
TGI (SF-295 CNS): > 100 µM
TGI (SN12C renal): > 100 µM
TGI (OVCAR-4 ovarian): > 100 µM
TGI (NCI-H23 lung): > 100 µM
TGI (NCI-H522 lung): > 100 µM

C/C(O)=C(\N=O)C(=O)Nc1ccc(Cl)cc1Cl
TGI (COLO 205 colon): > 100 µM
TGI (HOP-92 NSCLC): > 100 µM
TGI (SF-295 CNS): > 100 µM
TGI (SN12C renal): > 100 µM
TGI (OVCAR-4 ovarian): > 100 µM
TGI (SK-MEL-5 melanoma): > 100 µM
TGI (NCI-H23 lung): > 100 µM
TGI (NCI-H522 lung): > 100 µM

Nc1c(-c2ccc(Cl)cc2)[n+]([O-])c2ccccc2[n+]1[O-]
TGI (COLO 205 colon): > 100 µM
TGI (HOP-92 NSCLC): > 100 µM
TGI (SF-295 CNS): > 100 µM
TGI (SN12C renal): > 100 µM
TGI (OVCAR-4 ovarian): > 100 µM
TGI (SK-MEL-5 melanoma): > 100 µM
TGI (NCI-H23 lung): > 100 µM
TGI (NCI-H522 lung): 85.6 µM

COc1cc2cc(Oc3ccc(NC(=O)Nc4ccc(Cl)c(C(F)(F)F)c4)cc3)c(C)nc2cc1OCCN1CCOCC1
GI50 (COLO 205 colon): 1.63 µM
TGI (COLO 205 colon): 3.78 µM
GI50 (HOP-92 NSCLC): 1.66 µM
TGI (HOP-92 NSCLC): 6.16 µM
GI50 (SF-295 CNS): 1.19 µM
TGI (SF-295 CNS): 2.85 µM
GI50 (SN12C renal): 2.56 µM
TGI (SN12C renal): 56.2 µM
GI50 (OVCAR-4 ovarian): 0.582 µM
TGI (OVCAR-4 ovarian): 3.41 µM
GI50 (SK-MEL-5 melanoma): 1.14 µM
TGI (SK-MEL-5 melanoma): 2.37 µM
GI50 (NCI-H23 lung): 1.12 µM
TGI (NCI-H23 lung): 3.89 µM
GI50 (NCI-H522 lung): 1.43 µM
TGI (NCI-H522 lung): 4.07 µM
